According to patent US20040072907A1, “Antipicornaviral compounds, compositions containing them, and methods for their use” (priority 1997, published 2004):
Where two headings read alike, the source gives them in different places.

What was measured:
HRV serotype 2 = assay: Antirhinoviral HI-HeLa cell culture assay (XTT cell protection), HRV-2; assay type: cell-based, human rhinovirus; conditions: HRV serotype 2, HI-HeLa cells
Protocol: (§1) In the Cell Protection Assay, the ability of compounds to protect cells against HRV infection was measured by the XTT dye reduction method. This method is described in Weislow, O. S., Kiser, R., Fine, D. L., Bader, J., Shoemaker, R. H., Boyd, M. R., J. Natl. Cancer Inst. 1989, 81, 577-586, the disclosure of which is incorporated herein by reference.
(§2) Infected or mock-infected cells were resuspended at 8×10^5 cells per mL and incubated with appropriate concentrations of compounds of formula I. Two days later, XTT/PMS was added to test plates, and the amount of formazan produced was quantified spectrophotometrically at 450/650 nm. […] The therapeutic index (TI) was calculated by dividing the CC50 by the EC50.
(§3) All strains of human rhinovirus (HRV) for use in this assay were purchased from American Type Culture Collection (ATCC) except for HRV serotype-14, which was produced from the infectious cDNA clone constructed and supplied to Applicants by Dr. Robert Rueckert at the Institute for Molecular Virology, University of Wisconsin, Madison, Wis. HRV stocks were propagated, and viral assays were performed in HI-HeLa cells (ATCC). Cells were grown in Minimal Essential Medium, available from Life Technologies, with 10% fetal bovine serum.
(§4) The compounds were tested against control compounds WIN 51711, WIN 52084, and WIN 54954, all obtained from Sterling-Winthrop Pharmaceuticals, and control compound Pirodavir, obtained from Janssen Pharmaceuticals. Antiviral data obtained for the test compounds are shown in Table 2 where all data are for HRV serotype-14 unless otherwise noted in parentheses.

[1] = target: T1, Recombinant Rhinovirus 3C protease serotype 14 (Human rhinovirus 14, UniProt P03303); assay: biochemical; conditions: RVP serotype-14, progress curves, enzyme start experiments
T1 construct: Recombinant Rhinovirus 3C proteases from serotypes 14, 16, and 2; made in house
T1 sequence (P03303 1538-1719): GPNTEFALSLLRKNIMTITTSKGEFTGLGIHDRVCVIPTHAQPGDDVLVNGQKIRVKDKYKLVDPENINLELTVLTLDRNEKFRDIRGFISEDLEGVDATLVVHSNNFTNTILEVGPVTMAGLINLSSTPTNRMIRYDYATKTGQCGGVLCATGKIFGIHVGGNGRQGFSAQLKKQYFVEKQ
Protocol: Stock solutions (50 mM, in DMSO) of various compounds were prepared; dilutions were in the same solvent. […] Assays contained 2% DMSO, 50 mM tris pH 7.6, 1 mM EDTA, a compound at the indicated concentrations, approximately 1 μM substrate, and 50-100 nM protease. […] The kobs/I values were obtained from reactions initiated by addition of enzyme rather than substrate. RVP activity is measured in the fluorescence resonance energy transfer assay. […] In the uncleavaed peptide, the EDANS fluorescence was quenched by the proximal DABCYL moiety. When the peptide was cleaved, the quenching was relieved, and activity was measured as an increase in fluorescence signal.
The data in the column designated kobs/I was measured from progress curves enzyme start experiments.

HI-HeLa cells [2] = assay: Cytotoxicity in mock-infected HI-HeLa cells (XTT, antirhinoviral assay); assay type: cell-based; conditions: mock-infected HI-HeLa cells, read-out: CC50
Protocol: as §1, §2
(§5) HRV stocks were propagated, and viral assays were performed in HI-HeLa cells (ATCC). Cells were grown in Minimal Essential Medium, available from Life Technologies, with 10% fetal bovine serum.

HRV serotype-14 = assay: Antirhinoviral HI-HeLa cell culture assay (XTT cell protection), HRV-14; assay type: cell-based, human rhinovirus
Protocol: as §1, §2, §3, §4

HRV serotype 1A = assay: Antirhinoviral HI-HeLa cell culture assay (XTT cell protection), HRV-1A; assay type: cell-based, human rhinovirus; conditions: HI-HeLa cells
Protocol: as §1, §2, §3, §4

HRV serotype 10 = assay: Antirhinoviral HI-HeLa cell culture assay (XTT cell protection), HRV-10; assay type: cell-based, human rhinovirus; conditions: HRV serotype 10, HI-HeLa cells
Protocol: as §1, §2, §3, §4

HRV serotype 39 = assay: Antirhinoviral HI-HeLa cell culture assay (XTT cell protection), HRV-39; assay type: cell-based, human rhinovirus; conditions: HRV serotype 39, HI-HeLa cells
Protocol: as §1, §2, §3, §4

HRV serotype 89 = assay: Antirhinoviral HI-HeLa cell culture assay (XTT cell protection), HRV-89; assay type: cell-based, human rhinovirus; conditions: HRV serotype 89, HI-HeLa cells
Protocol: as §1, §2, §3, §4

HRV serotype 16 = assay: Antirhinoviral HI-HeLa cell culture assay (XTT cell protection), HRV-16; assay type: cell-based, human rhinovirus; conditions: HRV serotype 16, HI-HeLa cells
Protocol: as §1, §2, §3, §4

[3] = tested on: Coxsackie strain A-21 (CVA-21); assay: Anticoxsackieviral HI-HeLa cell culture assay (XTT cell protection); assay type: cell-based; conditions: CVA-21, HI-HeLa cells, m.o.i. 0.05, one day
Protocol: (§6) The Coxsackie strain A-21 (CVA-21) was purchased from American Type Culture Collection (ATCC). Virus stocks were propagated, and antiviral assays were performed in HI-HeLa cells (ATCC). Cells were grown in Minimal Essential Medium with 10% fetal bovine serum.
The ability of compounds to protect cells against CVA-21 infection was measured by the XTT dye reduction method. This method is described in Weislow, O. S., Kiser, R., Fine, D. L., Bader, J., Shoemaker, R. H., Boyd, M. R., J. Natl. Cancer Inst. 1989, 81, 577-586, the disclosure of which is incorporated herein by reference. […] Infected or uninfected cells were resuspended at 4×10^4 cells per mL and incubated with appropriate concentrations of drug. One day later, XTT/PMS was added to test plates, and the amount of formazan produced was quantified spectrophotometrically at 450/650 nm. […] The therapeutic index (TI) was calculated by dividing the CC50 by the EC50.
The compounds were tested against control compound WIN 54954, obtained from Sterling-Winthrop Pharmaceuticals, and control compound Pirodavir, obtained from Janssen Pharmaceuticals.

[4] = Cytotoxicity in uninfected HI-HeLa cells (XTT, anticoxsackieviral assay); assay type: cell-based; conditions: human, one day
Protocol: as §6
(§7) The ability of compounds to protect cells against CVA-21 infection was measured by the XTT dye reduction method. This method is described in Weislow, O. S., Kiser, R., Fine, D. L., Bader, J., Shoemaker, R. H., Boyd, M. R., J. Natl. Cancer Inst. 1989, 81, 577-586, the disclosure of which is incorporated herein by reference. HI-HeLa cells were infected with CVA-21 at a multiplicity of infection (m.o.i.) of 0.05 (CVA-21) or mock-infected with medium only. Infected or uninfected cells were resuspended at 4×10^4 cells per mL and incubated with appropriate concentrations of drug. One day later, XTT/PMS was added to test plates, and the amount of formazan produced was quantified spectrophotometrically at 450/650 nm. […] The therapeutic index (TI) was calculated by dividing the CC50 by the EC50.

[5] = Cytotoxicity in mock-infected HI-HeLa cells (XTT, antirhinoviral assay); assay type: cell-based; conditions: human; mock-infected HI-HeLa cells; line for HRV serotype-14
Protocol: as §1, §2, §5

HI-HeLa cells [6] = assay: Cytotoxicity in uninfected HI-HeLa cells (XTT, anticoxsackieviral assay); assay type: cell-based; conditions: one day
Protocol: as §6, §7

[7] = HRV serotype-14, HI-HeLa cells, m.o.i. 0.13, two days, XTT, read-out: EC50

Row | Molecule | EC50 (HRV serotype 2) [nM] | CC50 (HI-HeLa cells [2]; line for HRV serotype 1A) [nM] | CC50 (HI-HeLa cells [2]; line for HRV serotype 2) [nM] | CC50 (HI-HeLa cells [2]; line for HRV serotype 10) [nM] | CC50 (HI-HeLa cells [2]; line for HRV serotype-14) [nM] | EC50 (HRV serotype-14; [7]) [nM] | EC50 (HRV serotype 1A) [nM] | EC50 (HRV serotype 10) [nM] | EC50 (HRV serotype 89) [nM] | CC50 (HI-HeLa cells [2]; line for HRV serotype 39) [nM] | CC50 (HI-HeLa cells [2]; line for HRV serotype 89) [nM] | EC50 (HRV serotype 16) [nM] | also measured
1 | CCOC(=O)/C=C/C(CCC(N)=O)NC(=O)C(CC(=O)C(CC(C)C)NC1CCCC1)Cc1ccc(F)cc1 (stereo not drawn) [Compound 19] | 710 | > 3000 | > 3000 | > 3000 | > 3000 | 280 | 600 | 1600 |  |  |  |  | kobs/I [1]: 67,200 M^−1sec^−1
2 | CCOC(=O)/C=C/C(CCC(N)=O)NC(=O)C(CC(=O)C(NC(=O)OC1CCCC1)C(C)C)Cc1ccc(C)cc1 (stereo not drawn) [Compound 20] | 560 | > 3000 | > 3000 | > 3000 | > 3000 | 42 | 530 |  | 470 | > 3000 | > 3000 | 150 | EC50 (HRV serotype 39): 1200 nM; CC50 (HI-HeLa cells [2]; line for HRV serotype 16): > 3000 nM
3 | CCOC(=O)/C=C/C(CCC(N)=O)NC(=O)C(CC(=O)C(CC(C)C)NC(=O)SC1CCCC1)Cc1ccc(C)cc1 [Compound 21, Ethyl-3-(CyPentylSCO-L-LeuΨ[COCH2]-L-(p-CH3)Phe-L-Gln)-E-Propenoate] | 1000 | > 10000 | > 10000 | > 10000 | > 10000 |  | 560 | 1400 |  |  |  |  | 
4 | CCOC(=O)c1ccc(OCCC2CCN(c3ccc(C)nn3)CC2)cc1 [Pirodavir, reference compound] |  |  |  |  |  |  |  |  |  |  |  |  | EC50 ([3]; 24 h): > 100 µM; CC50 at 1 day [4]: > 100 µM; CC50 at 2 days [5]: > 10 µM; EC50 (HRV serotype-14; Human rhinovirus sp., 48 h, HRV serotype-14, HI-HeLa cells, m.o.i. 0.13, two days, XTT, read-out: EC50): 30 nM
5 | Ethyl-3-(CBZ-L-LeuΨ[COCH2]-D/L-Phe-L-Gln)-E-Propenoate [Compound 1 + 9 (˜1:1)] | 2000 |  |  |  |  | 1300 |  | 4100 | 5100 |  |  | 2800 | 
6 | CCOC(=O)/C=C/[C@H](CCC(N)=O)NC(=O)[C@@H](CC(=O)[C@@H](NC(=O)OC1CCCC1)C(C)C)Cc1ccc(F)cc1 [Compound 25, Ethyl-3-(CyPentylOCO-L-ValΨ[COCH2]-L-(p-F)Phe-L-Gln)-E-Propenoate] |  | > 3000 | > 3000 | > 3000 | > 3000 | 140 | 900 | 1700 | 320 | > 3000 | > 3000 | 710 | EC50 (HRV serotype 39): 560 nM; CC50 (HI-HeLa cells [2]; line for HRV serotype 16): > 3000 nM
7 | CCOC(=O)/C=C/C(CCC(N)=O)NC(=O)C(CC(=O)C(NC(=O)SC1CCCC1)C(C)C)Cc1ccccc1 [Compound 7, Ethyl-3-(CyPentylSCO-L-ValΨ[COCH2]-L-Phe-L-Gln)-E-Propenoate] |  |  | > 10000 | > 10000 |  |  |  |  |  | > 10000 | > 10000 |  | CC50 (HI-HeLa cells [6]): > 10 µM
8 | Cc1cc(CCCCCOc2c(Cl)cc(C3=NCCO3)cc2Cl)on1 [WIN 54954, reference compound] |  |  |  |  | > 63000 | 2130 |  |  |  |  |  |  | EC50 [3]: > 100 µM; CC50 (HI-HeLa cells [6]): > 100 µM
9 | CC(C)CC(NC(=O)SCc1ccccc1)C(=O)CC(Cc1ccccc1)C(=O)NC(C=CC(=O)N1CCc2ccccc21)CCC(N)=O [Compound 3, (2,3-Dihydroindole)-3-(BnSCO-L-LeuΨ[COCH2]-L-Phe-L-Gln)-E-Propenamide] |  |  |  |  |  |  |  |  |  |  |  |  | kinact/KI ([1]; read-out: kobs/I): 29200 M⁻¹ s⁻¹; CC50 at 2 days [5]: 50.1 µM; EC50 (HRV serotype-14; Human rhinovirus sp., 48 h): 1900 nM
